# ChEMBL document CHEMBL4680161, “Design and synthesis of α-naphthoflavone chimera derivatives able to eliminate cytochrome P450 (CYP)1B1-mediated drug resistance via targeted CYP1B1 degradation” (Eur J Med Chem, 2020)
# pIC50: −log10 of the molar value.
# Tests used:
# [1] = target: T1, Cytochrome P450 1B1 (Homo sapiens, UniProt Q16678); assay: Inhibition of recombinant human CYP1B1 expressed in baculovirus infected insect cells using 7-ethoxyresorufin as substrate preincubated for 5 mins followed by NADPH addition and measured after 15 mins by EROD assay
# T1 sequence (Q16678 whole entry): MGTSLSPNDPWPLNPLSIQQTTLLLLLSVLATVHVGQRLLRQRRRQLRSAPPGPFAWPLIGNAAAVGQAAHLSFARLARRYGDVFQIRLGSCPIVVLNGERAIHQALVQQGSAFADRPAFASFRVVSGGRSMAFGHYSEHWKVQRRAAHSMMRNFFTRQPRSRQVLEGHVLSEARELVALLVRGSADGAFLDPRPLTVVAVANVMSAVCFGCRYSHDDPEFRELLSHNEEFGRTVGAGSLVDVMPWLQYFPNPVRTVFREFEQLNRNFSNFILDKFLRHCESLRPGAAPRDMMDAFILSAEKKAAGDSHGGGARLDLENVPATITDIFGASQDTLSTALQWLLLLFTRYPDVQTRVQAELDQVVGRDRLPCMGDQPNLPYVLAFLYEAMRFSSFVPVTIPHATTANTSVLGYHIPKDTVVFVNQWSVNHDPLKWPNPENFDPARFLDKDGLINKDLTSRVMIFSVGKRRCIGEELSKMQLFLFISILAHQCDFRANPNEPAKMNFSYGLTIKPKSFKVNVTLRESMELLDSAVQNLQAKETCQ
# [2] = target: T2, Cytochrome P450 1A2 (Homo sapiens, UniProt P05177); assay: Inhibition of recombinant human CYP1A2 expressed in baculovirus infected insect cells using 7-ethoxyresorufin as substrate preincubated for 5 mins followed by NADPH addition and measured after 35 mins by EROD assay; format: ADME
# T2 sequence (P05177 whole entry): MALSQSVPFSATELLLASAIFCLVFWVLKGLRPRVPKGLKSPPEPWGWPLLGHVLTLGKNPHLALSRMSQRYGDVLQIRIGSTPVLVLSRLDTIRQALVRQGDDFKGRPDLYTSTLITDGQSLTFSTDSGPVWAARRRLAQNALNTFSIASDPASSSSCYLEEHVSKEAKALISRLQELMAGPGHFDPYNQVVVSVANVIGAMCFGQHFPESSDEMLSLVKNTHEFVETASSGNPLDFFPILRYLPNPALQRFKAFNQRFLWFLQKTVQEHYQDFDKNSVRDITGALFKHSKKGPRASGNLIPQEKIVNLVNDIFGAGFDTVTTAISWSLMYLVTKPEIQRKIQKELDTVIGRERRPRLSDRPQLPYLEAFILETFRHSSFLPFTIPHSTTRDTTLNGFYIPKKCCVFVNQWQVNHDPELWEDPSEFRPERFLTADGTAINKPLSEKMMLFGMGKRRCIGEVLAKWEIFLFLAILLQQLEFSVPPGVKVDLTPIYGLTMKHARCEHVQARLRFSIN
# [3] = species on record: Homo sapiens; assay: Selectivity ratio IC50 for inhibition of recombinant human CYP1A2 to inhibition of recombinant human CYP1B1
# [4] = target: von Hippel-Lindau disease tumor suppressor/Cytochrome P450 1B1 (Homo sapiens, UniProt Q16678+P40337); assay: Protac activity at E3 ubiquitin ligase/CYP1B1 (unknown origin) expressed in human DU145 cells assessed as induction of CYP1B1 degradation by immunoblotting analysis; format: cell-based; conditions: du-145
# Sequence of von Hippel-Lindau disease tumor suppressor/Cytochrome P450 1B1 (P40337 whole entry, one chain of several): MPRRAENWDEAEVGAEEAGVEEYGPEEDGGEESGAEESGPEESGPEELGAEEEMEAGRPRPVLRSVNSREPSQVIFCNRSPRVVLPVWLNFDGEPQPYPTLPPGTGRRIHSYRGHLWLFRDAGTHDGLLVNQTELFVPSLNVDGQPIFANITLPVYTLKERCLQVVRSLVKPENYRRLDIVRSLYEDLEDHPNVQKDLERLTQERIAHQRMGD
# [5] = Selectivity ratio of IC50 for cytotoxicity against human DU-145 cells over expressing CYP1B1 to cytotoxicity against human DU-145 cells; format: functional
# [6] = tested on: DU-145; assay: Cytotoxicity against human DU-145 cells over expressing CYP1B1 assessed as reduction in cell viability after 48 hrs by MTT assay; format: functional, cell-based; conditions: DU-145, 48 h
# [7] = tested on: DU-145; assay: Cytotoxicity against human DU-145 cells assessed as reduction in cell viability after 48 hrs by MTT assay; format: functional, cell-based; conditions: DU-145, 48 h
Structure (SMILES),pIC50 [1],pIC50 [2],Ratio IC50 [3],Activity [4],Ratio IC50 [5],pIC50 [6],pIC50 [7]
COc1ccc(OC)c2c1c(OC)cc1c(=O)cc(-c3ccccc3)oc12,8.85,7.59,18.4,,,,
COc1ccc(OC)c2c1c(OC)cc1c(=O)cc(-c3ccc(-c4cn(CCCCCOc5cccc6c5C(=O)N(C5CCC(=O)NC5=O)C6=O)nn4)cc3)oc12 (configuration not stated),6.82,5.07,56.1,Active,,,
COc1ccc(OC)c2c1c(OC)cc1c(=O)cc(-c3ccc(-c4cn(CCCCCCOc5cccc6c5C(=O)N(C5CCC(=O)NC5=O)C6=O)nn4)cc3)oc12 (configuration not stated),7.02,5.01,104,Dose-dependent effect and Tde,,,
COc1ccc(OC)c2c1c(OC)cc1c(=O)cc(-c3ccc(Cl)cc3)oc12,9.22,7.43,62,,,,
[N-]=[N+]=NCCCCCCOc1cccc2c1C(=O)N(C1CCC(=O)NC1=O)C2=O (configuration not stated),< 5.00,< 5.00,,,,,
[N-]=[N+]=NCCCCCCCCOc1cccc2c1C(=O)N(C1CCC(=O)NC1=O)C2=O (configuration not stated),< 5.00,< 5.00,,Not Active,,,
CC(=O)O[C@@]12CO[C@@H]1C[C@H](O)[C@@]1(C)C(=O)[C@H](O)C3=C(C)[C@@H](OC(=O)[C@H](O)[C@@H](NC(=O)OC(C)(C)C)c4ccccc4)C[C@@](O)([C@@H](OC(=O)c4ccccc4)[C@H]21)C3(C)C [DOCETAXEL ANHYDROUS],,,,,9,7.36,8.31
[N-]=[N+]=NCCCCCOc1cccc2c1C(=O)N(C1CCC(=O)NC1=O)C2=O (configuration not stated),< 5.00,< 5.00,,Not Active,,,
C#Cc1ccc(-c2cc(=O)c3cc(OC)c4c(OC)ccc(OC)c4c3o2)cc1,8.68,6.05,422,Not Active,,,
COc1ccc(OC)c2c1c(OC)cc1c(=O)cc(-c3ccc(-c4c[nH]nn4)cc3)oc12,9.40,7.32,120,,,,
COc1ccc(OC)c2c1c(OC)cc1c(=O)cc(-c3ccc(-c4cn(CCOc5cccc6c5C(=O)N(C5CCC(=O)NC5=O)C6=O)nn4)cc3)oc12 (configuration not stated),6.99,5.04,89.2,Active,,,
[N-]=[N+]=NCCOc1cccc2c1C(=O)N(C1CCC(=O)NC1=O)C2=O (configuration not stated),< 5.00,< 5.00,,,,,
COc1ccc(OC)c2c1c(OC)cc1c(=O)cc(-c3ccc(-c4cn(CCCCCCCCOc5cccc6c5C(=O)N(C5CCC(=O)NC5=O)C6=O)nn4)cc3)oc12 (configuration not stated),6.78,5.13,44.8,Not Active,,,
